Measurements as given in the supplement of paper PMC5908809.

What was measured:
Test in all cases: relative IC50 (inflection point of fitted viability curve, relative to fitted max inhibition); higher = less sensitive
Conditions in all cases: 72 h
IMC-1 (IL-2 20 ng/mL) = tested on: IMC-1 (IL-2 20 ng/mL)
Description: (§1)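 Drug sensitivity and resistance testing: 5 concentrations over a 10,000-fold range, 72 h at 37 °C, viability by CellTiter-Glo normalised to DMSO and benzethonium chloride controls. IC50 is the inflection point of a logistic fit (min fixed at 0, max fitted), so it is relative to the fitted maximal inhibition. Kept only where fitted max inhibition is at least 50%.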

[1] = tested on: normal primary NK cells, pool 3 (3 donors) (IL-2 2.5 ng/mL)
Description: as §1

[2] = tested on: normal primary NK cells, pool 1 (3 donors), resting (IL-2 0 ng/mL)
Description: as §1

NK-YS (IL-2 2.5 ng/mL) = tested on: NK-YS (IL-2 2.5 ng/mL)
Description: as §1

DERL-7 (IL-2 2.5 ng/mL) = tested on: DERL-7 (IL-2 2.5 ng/mL)
Description: as §1

NK-92 (IL-2 2.5 ng/mL) = tested on: NK-92 (IL-2 2.5 ng/mL)
Description: as §1

SNK-6 (IL-2 2.5 ng/mL) = tested on: SNK-6 (IL-2 2.5 ng/mL)
Description: as §1

KHYG-1 (IL-2 2.5 ng/mL) = tested on: KHYG-1 (IL-2 2.5 ng/mL)
Description: as §1

[3] = tested on: normal primary NK cells, pool 1 (3 donors) (IL-2 2.5 ng/mL)
Description: as §1

YT (IL-2 2.5 ng/mL) = tested on: YT (IL-2 2.5 ng/mL)
Description: as §1

NKL (IL-2 2.5 ng/mL) = tested on: NKL (IL-2 2.5 ng/mL)
Description: as §1

[4] = tested on: normal primary NK cells, pool 2 (3 donors) (IL-2 2.5 ng/mL)
Description: as §1

KAI3 (IL-2 2.5 ng/mL) = tested on: KAI3 (IL-2 2.5 ng/mL)
Description: as §1

Compound	relative IC50 (IMC-1 (IL-2 20 ng/mL)) [nM]	relative IC50 [1] [nM]	relative IC50 [2] [nM]	relative IC50 (NK-YS (IL-2 2.5 ng/mL)) [nM]	relative IC50 (DERL-7 (IL-2 2.5 ng/mL)) [nM]	relative IC50 (NK-92 (IL-2 2.5 ng/mL)) [nM]	relative IC50 (SNK-6 (IL-2 2.5 ng/mL)) [nM]	relative IC50 (KHYG-1 (IL-2 2.5 ng/mL)) [nM]	relative IC50 [3] [nM]	relative IC50 (YT (IL-2 2.5 ng/mL)) [nM]	relative IC50 (NKL (IL-2 2.5 ng/mL)) [nM]	relative IC50 [4] [nM]	relative IC50 (KAI3 (IL-2 2.5 ng/mL)) [nM]
O=C(CCCCCCC(=O)Nc1ccccc1)NO [Vorinostat]	2290	1980	394	1170	690	467	713	531	376	1470	384	1100	
CNC(=O)c1ccccc1Sc1ccc2c(/C=C/c3ccccn3)n[nH]c2c1 [Axitinib]	2760			1100	323	1500	707	916		1200	734		717
Cc1csc(-c2nnc(Nc3ccc(Oc4ncccc4-c4ccnc(N)n4)cc3)c3ccccc23)c1 [AMG-900]	123			5.4	11.1	58.5	2.8	11.3	> 1000		> 1000	> 1000	
NC(=O)Nc1cc(-c2cccc(F)c2)sc1C(=O)N[C@H]1CCCNC1 [AZD7762]	353			132	115	131	127	29.2		145	43.2		28.8
CC[C@H](C)C(=O)O[C@H]1C[C@@H](C)C=C2C=C[C@H](C)[C@H](CC[C@@H]3C[C@@H](O)CC(=O)O3)[C@H]21 [Lovastatin]		> 10000		1940							3520	> 10000	
O=C(O)CCCc1ccc(N(CCCl)CCCl)cc1 [Chlorambucil]		3180	1660	1930		3200	2210	3160	2830		1410	2960	1620
NS(=O)(=O)OC[C@@H]1C[C@@H](n2ccc3c(N[C@H]4CCc5ccccc54)ncnc32)C[C@@H]1O [Pevonedistat]	107	335		507	430	633	39.7	69	156	55.1	448	449	48.7
Cc1c(CN2CCN(C(=O)[C@H](C)O)CC2)sc2c(N3CCOCC3)nc(-c3cnc(N)nc3)nc12 [Apitolisib]		2310		599	204	145		1600	902	622	492	1320	457
N#CCNC(=O)c1ccc(-c2ccnc(Nc3ccc(N4CCOCC4)cc3)n2)cc1 [Momelotinib]	1800	1000		796	394	346	891	173	177	1140	178	810	205
CC/C(=C(\c1ccccc1)c1ccc(OCCN(C)C)cc1)c1ccccc1 [Tamoxifen]			1680		1680	2940	3700		2060	2700	1430	2590	2450
C[C@]12O[C@H](C[C@]1(O)CO)n1c3ccccc3c3c4c(c5c6ccccc6n2c5c31)CNC4=O [Lestaurtinib]	96.7	44.1		85	28.6	31.1	38.5	16	20.9	78.3	28.1	21.5	11.9
Clc1ccc(Nc2nnc(Cc3ccncc3)c3ccccc23)cc1 [Vatalanib]		> 10000							> 10000				
CN(Cc1cnc2nc(N)nc(N)c2n1)c1ccc(C(=O)N[C@@H](CCC(=O)O)C(=O)O)cc1 [Methotrexate]	26.1	> 5000		19.1	268	21.1	9.91	17.8		13.7	38.4	> 5000	17.9
CN(N=O)C(=O)N[C@@H](C=O)[C@@H](O)[C@H](O)[C@H](O)CO [Streptozocin]		> 10000	> 10000		> 10000	> 10000			> 10000		> 10000		> 10000
O=C(O)CC[C@H]1CC[C@@](c2cc(F)ccc2F)(S(=O)(=O)c2ccc(Cl)cc2)CC1 [MK-0752]			> 1000									> 1000	
CNC(=O)c1ccc2cc([C@@]3(O)CCn4cncc43)ccc2c1 [Orteronel]		> 10000		> 10000								> 10000	> 10000
Cn1c(Nc2ccc(C(F)(F)F)cc2)nc2cc(Oc3ccnc(-c4ncc(C(F)(F)F)[nH]4)c3)ccc21 [RAF265]			47.4			175							
C[C@]12C=CC(=O)C=C1CC[C@@H]1[C@@H]2[C@@H](O)C[C@@]2(C)[C@H]1CC[C@]2(O)C(=O)CO [Prednisolone]	> 10000		69.9		65.7	> 10000			185		24.7	165	> 10000
CO[C@H]1C[C@@H]2CC[C@@H](C)[C@@](O)(O2)C(=O)C(=O)N2CCCC[C@H]2C(=O)O[C@H]([C@H](C)C[C@@H]2CC[C@@H](OCCO)[C@H](OC)C2)CC(=O)[C@H](C)/C=C(\C)[C@@H](O)[C@@H](OC)C(=O)[C@H](C)C[C@H](C)/C=C/C=C/C=C/1C [Everolimus]	> 100	> 100			0.94								
Cc1cc2c(F)c(Oc3ncnn4cc(OC[C@@H](C)O)c(C)c34)ccc2[nH]1 [Brivanib]	> 1000	> 1000				> 1000		> 1000		> 1000	> 1000	> 1000	
CC(C)n1cnc2c(NCCc3ccc(O)cc3)nc(-c3csc4ccccc34)nc21 [StemRegenin 1]			1900		112	1180	3860	2450		2530	1620	3420	3180
O=C(CCCCCCC(=O)Nc1ccc([C@H]2O[C@@H](CSc3nc(-c4ccccc4)c(-c4ccccc4)o3)C[C@@H](c3ccc(CO)cc3)O2)cc1)NO [Tubacin]	2650		3800	2830	1620	1660	1800	3090		2630	1330		2070
CS(=O)(=O)N1CCN(Cc2cc3nc(-c4cccc5[nH]ncc45)nc(N4CCOCC4)c3s2)CC1 [Pictilisib]	> 10000		694	1180	472	421		2010	1120	1260	821	1950	1490
Cn1c(=O)n(-c2ccc(C(C)(C)C#N)cc2)c2c3cc(-c4cnc5ccccc5c4)ccc3ncc21 [Dactolisib]	198			26.1	9.68	15	40.5	48		40.9	10.4	31.8	17.3
Cc1ccc(Nc2nccc(N(C)c3ccc4c(C)n(C)nc4c3)n2)cc1S(N)(=O)=O [Pazopanib]		> 10000					31.3						
Cc1cc(Nc2nc(N[C@@H](C)c3ncc(F)cn3)ncc2Cl)[nH]n1 [AZD1480]	331	123		78.1	50.5	126	73.1	26.1	75.5	197	23.3	80.6	20.8
